“And” between values parts separate entries of the source, which are not always exact repeats. Identical values can stand only once.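 Exposure lasted 48 hours, with cells grown in 96-well plates and compounds tested at five concentrations. GI50 = concentration required for 50% inhibition of growth. TGI marks complete inhibition of growth.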 Where a SMILES comes first, the peptide text is derived from it. The star is where a group is joined. Boc = CC(C)(C)OC(=O)*

The text below walks through data of PubChem BioAssay (NCI).

Holding throughout (test): DTP human tumour cell line panel, 48 h
For assay [1], the system named is UO-31 renal.
The subject of assay [2] is U251 CNS.
Assay [3] has as its system NCI-H23 lung.
Assay [4] concerns HCT-15 colon.
Assay [5] has as its system LOX IMVI melanoma.
For assay [6], the system named is OVCAR-5 ovarian.
Assay [7] deals with MOLT-4 leukemia.
Assay [8] concerns PC-3 prostate.
Assay [9] deals with A549 NSCLC.
In assay [10] the test system is IGROV1 ovarian.

Turning to `C=COC(=O)N[C@H]1CCc2cc(OC)c(OC)c(OC)c2-c2ccc(SC)c(=O)cc21`, the TGI in assay [1] is 74.9 µM; in assay [2], 3.02 µM; in assay [3], 12.1 µM; in [4], more than 100 µM; in assay [5] it was more than 95.8 µM; in [6] it was more than 75 µM. Moreover, the TGI in assay [7] is more than 96.8 µM; in [8], more than 100 µM; in assay [9], 72.7 µM; in [10], more than 100 µM.
With `Cc1ccc2c(C3C(C#N)=C(N)Oc4cc5ccccc5cc43)cc(=O)oc2c1` (configuration not stated), the GI50 is 7.68 µM in [1]; 2.28 µM in assay [2]; 6.06 µM in assay [3]; 0.64 µM in assay [4]; 3.17 µM in assay [5]; 3.76 µM in assay [6]. For the same compound, the GI50 in [7] is 2.05 µM; in assay [8], 1.25 µM; in assay [9], 2.95 µM; in [10], 0.983 µM. Also, the TGI in [1], in assay [2], in assay [3], in assay [4], in assay [5] and in assay [6] was more than 100 µM in each case. Moreover, the TGI in [7], in assay [8], in assay [9] and in assay [10] was more than 100 µM each time.
As to `Cc1nc2cc(Nc3nc(Nc4ccc(F)cc4)nc(-c4cccs4)n3)ccc2n1Cc1ccccc1`, the GI50 in assay [1] is 3.75 µM; in assay [2], 3.13 µM; in assay [3], 5.87 µM; in assay [4], 3.11 µM; in assay [5], 2.36 µM; in assay [6], 9.62 µM. The GI50 in assay [7] is 2.97 µM; in assay [8], 2.71 µM; in assay [9], 2.98 µM; in assay [10] it was 3.62 µM. The TGI in assay [1] worked out at 17.5 µM; in [2] it was 13.7 µM; in assay [3] it was 32.7 µM; in assay [4], 16.3 µM; in assay [5], 5.85 µM; in assay [6] it was 27.3 µM. In addition, the TGI turned out to be 9.3 µM in assay [7], 52.2 µM in assay [8], 15.1 µM in assay [9] and 12.9 µM in assay [10].
In the case of `BrCc1cccc(C[P+](c2ccccc2)(c2ccccc2)c2ccccc2)c1`, the GI50 in [1] was more than 100 µM; in assay [2], 6.86 µM; in assay [3], 36.2 µM; in assay [4], more than 100 µM; in assay [5], 14 µM; in assay [6] it was 30.2 µM. The GI50 in assay [7] is 65 µM; in [8] it was 6.26 µM; in assay [9], 42.3 µM; in assay [10] it was 21.6 µM. In addition, the TGI in assay [1], in assay [2], in [3], in assay [4], in assay [5] and in assay [6] was more than 100 µM each time. The TGI in assay [7], in [8], in assay [9] and in [10] was more than 100 µM throughout.
Regarding `CC1CCN(C(=O)OCc2nc3nc(Cl)nc(N4CCOCC4)c3[nH]2)CC1`, the GI50 in [1] is 0.692 µM; in [2], 1.66 µM; in assay [3], 1.58 µM; in [4], 0.634 µM; in assay [5] it was 0.175 µM; in assay [6], 1.31 µM. The GI50 in assay [7] was 0.704 µM; in assay [8], 0.832 µM; in [9], 1.94 µM; in assay [10], 0.529 µM. The TGI in assay [1] worked out at 2.05 µM; in [2], 3.43 µM; in assay [3] it was 3.65 µM; in [4] it was 2.22 µM; in assay [5], 0.473 µM; in assay [6] it was 2.73 µM. Also, the TGI in assay [7] amounted to 4.04 µM; in assay [8], 2.42 µM; in [9] it was 4.81 µM; in assay [10] it was 1.83 µM.
As to `COC(=O)C(C)NC(=O)C(CCSC)NC(=O)C(Cc1ccccc1)NC(=O)OC(C)(C)C` (stereo not drawn) (Boc-Phe-Met-Ala-OMe; configuration not given here), the TGI was more than 100 µM in [1]; 67 µg/mL and > 100 µM in [2]; more than 100 µM in assay [3]; more than 100 µM in assay [4]; 43 µg/mL and > 100 µM in assay [5]; more than 100 µM in assay [6]. The TGI in assay [7] was 40.2 µg/mL and > 100 µM; in assay [8], more than 100 µM; in [9], more than 100 µM; in [10], more than 100 µM. Also, the GI50 in assay [2] was 22.6 µg/mL; in [3], 41.9 µg/mL; in [5], 20.3 µg/mL; in [6] it was 31.6 µg/mL; in [7] it was 18.6 µg/mL; in assay [9], 35.7 µg/mL. In addition, the GI50 in [10] was 53.5 µg/mL.
Take `COc1ccc(-c2nnc(N3CCN(C(=O)CN4CCN(c5ccccc5)CC4)CC3)nc2-c2ccc(OC)cc2)cc1`: the GI50 in [1] was 1.91 µM; in assay [2], 4.14 µM; in assay [3], 6.92 µM; in assay [4], 3.13 µM; in assay [5] it was 5.78 µM; in [6] it was more than 100 µM. For the same compound, the GI50 in [7] was 2.04 µM; in [8], 3.83 µM; in [9], 4.85 µM; in [10], 11.1 µM. The TGI in assay [1], in assay [2], in assay [3], in assay [4], in assay [5] and in assay [6] was more than 100 µM each time. For the same compound, the TGI is 6.64 µM in assay [7], more than 100 µM in assay [8], more than 100 µM in [9] and more than 100 µM in [10].
For the compound `COc1ccc(-c2nsc3c2NC(=O)CC3c2cccc(OC)c2)cc1` (configuration not stated), the GI50 is 3.1 µM in [1]; 1.83 µM in [2]; 2.59 µM in assay [3]; 0.527 µM in assay [4]; 0.689 µM in assay [5]; 3.79 µM in [6]. The GI50 in assay [7] is 2.18 µM; in assay [8], 2.45 µM; in assay [9], 0.714 µM; in [10], 2.18 µM. Moreover, the TGI in [1], in assay [2], in assay [3], in assay [4], in assay [5] and in assay [6] was more than 100 µM each time. The TGI in assay [7], in assay [8], in assay [9] and in [10] was more than 100 µM in each case.
